ChEMBL document CHEMBL5518227, “Discovery of JNJ-1802, a First-in-Class Pan-Serotype Dengue Virus NS4B Inhibitor” (J Med Chem, 2024)
pEC50, pIC50: −log10 of the molar value.

How the values were obtained:
dengue virus type 4 = experiment: Antiviral activity against DENV-4 H241 infected in african green monkey Vero cells incubated for 24 hrs measured after 3 days post infection by RT-PCR analysis; format: functional, organism-based
[1] = Metabolic stability in human liver microsomes assessed as intrinsic clearance preincubated for 5 mins followed by NADPH addition measured upto 60 mins by LC-MS/MS analysis; format: ADME, Microsome; conditions: time < 65 min, read-out: CLH
[2] = Metabolic stability in human hepatocytes assessed as intrinsic clearance measured per million cells incubated upto 120 mins by LC-MS/MS analysis; format: ADME, cell-based, Hepatocyte; conditions: read-out: CLH
[3] = Metabolic stability in rat hepatocytes assessed as intrinsic clearance measured per million cells incubated upto 120 mins by LC-MS/MS analysis; format: ADME, cell-based, Hepatocyte; conditions: read-out: CLH
[4] = Clearance in Sprague-Dawley rat at 2.5 mg/kg, iv measured after 24 hrs by LC-MS/MS analysis; format: ADME, organism-based; conditions: in vivo
[5] = Cmax in Sprague-Dawley rat at 10 mg/kg, po measured after 24 to 48 hrs by LC-MS/MS analysis; format: ADME, organism-based; conditions: in vivo, time 24-48 hrs
[6] = AUC in Sprague-Dawley rat at 10 mg/kg, po measured after 24 to 48 hrs by LC-MS/MS analysis; format: ADME, organism-based; conditions: in vivo, time 24-48 hrs
[7] = Metabolic stability in cynomolgus monkey hepatocytes assessed as intrinsic clearance measured per million cells incubated upto 120 mins by LC-MS/MS analysis; format: ADME, cell-based, Macaca fascicularis, Hepatocyte; conditions: read-out: CLH
[8] = Clearance in CD-1 mouse at 2.5 mg/kg, iv measured upto 24 hrs by LC-MS/MS analysis; format: ADME, organism-based; conditions: in vivo
[9] = Elimination half life in CD-1 mouse at 2.5 mg/kg, iv measured upto 24 hrs by LC-MS/MS analysis; format: ADME, organism-based; conditions: in vivo, read-out: beta t1/2 (converted)
[10] = AUC in CD-1 mouse at 10 mg/kg, po measured upto 24 hrs by LC-MS/MS analysis; format: ADME, organism-based; conditions: in vivo
[11] = Clearance in CD-1 mouse assessed as liver blood flow at 2.5 mg/kg, iv measured upto 24 hrs by LC-MS/MS analysis; format: ADME, organism-based; conditions: in vivo
[12] = Clearance in overnight fasted Beagle dog assessed as liver blood flow at 0.51 mg/kg, iv measured upto 24 hrs by LC-MS/MS analysis; format: ADME, organism-based, Canis lupus familiaris; conditions: in vivo
[13] = Cmax in overnight fasted Beagle dog at 2.37 mg/kg, po measured upto 24 hrs by LC-MS/MS analysis; format: ADME, organism-based, Canis lupus familiaris; conditions: in vivo
[14] = Oral bioavailability in overnight fasted Beagle dog at 2.37 mg/kg measured upto 24 hrs by LC-MS/MS analysis; format: ADME, organism-based, Canis lupus familiaris; conditions: in vivo
[15] = Clearance in 8 hrs fasted cynomolgus monkey assessed as liver blood flow at 1 mg/kg, iv measured upto 24 hrs by LC-MS/MS analysis; format: ADME, organism-based, Macaca fascicularis; conditions: in vivo
[16] = Volume of distribution at steady state in 8 hrs fasted cynomolgus monkey […] at 1 mg/kg, iv measured upto 24 hrs by LC-MS/MS analysis; format: ADME, organism-based, Macaca fascicularis; conditions: in vivo, read-out: Vdss
[17] = AUC in 8 hrs fasted cynomolgus monkey assessed as liver blood flow at 3 mg/kg, po measured upto 24 hrs by LC-MS/MS analysis; format: ADME, organism-based, Macaca fascicularis; conditions: in vivo
[18] = Distribution coefficient between 1-Octanol and aqueous phosphate buffer, logD of the compound at pH 7.4 by shake flask method; format: physicochemical; conditions: 1-octanol/aqueous phosphate buffer
mouse P-gp [19] = experiment: Apparent permeability across apical to basolateral side in pig LLC-PK1 cells transfected with mouse P-gp at 1 uM measured upto 120 mins; format: ADME, cell-based, Sus scrofa
mouse P-gp [20] = experiment: Efflux ratio of permeability from basolateral to apical side over apical to basolateral side in pig LLC-PK1 cells transfected with mouse P-gp at 1 uM measured upto 120 mins; format: ADME, cell-based, Sus scrofa
[21] = Mutagenicity in Salmonella typhimurium TA98 in presence or absence of S9 fraction pretreated for 90 mins measured after 48 hrs in dark by AMES test; format: toxicity; conditions: salmonella enterica subsp. enterica serovar typhimurium, s9, 49.5 h; time 2970 min
[22] = Mutagenicity in Salmonella typhimurium TA7002 in presence or absence of S9 fraction pretreated for 90 mins measured after 48 hrs in dark by AMES test; format: toxicity; conditions: salmonella enterica subsp. enterica serovar typhimurium, s9, 49.5 h; time 2970 min
[23] = Mutagenicity in Salmonella typhimurium TA7003 in presence or absence of S9 fraction pretreated for 90 mins measured after 48 hrs in dark by AMES test; format: toxicity; conditions: salmonella enterica subsp. enterica serovar typhimurium, s9, 49.5 h; time 2970 min
[24] = Mutagenicity in Salmonella typhimurium TA7004 in presence or absence of S9 fraction pretreated for 90 mins measured after 48 hrs in dark by AMES test; format: toxicity; conditions: salmonella enterica subsp. enterica serovar typhimurium, s9, 49.5 h; time 2970 min
[25] = Mutagenicity in Salmonella typhimurium TA7005 in presence or absence of S9 fraction pretreated for 90 mins measured after 48 hrs in dark by AMES test; format: toxicity; conditions: salmonella enterica subsp. enterica serovar typhimurium, s9, 49.5 h; time 2970 min
[26] = Mutagenicity in Salmonella typhimurium TA7006 in presence or absence of S9 fraction pretreated for 90 mins measured after 48 hrs in dark by AMES test; format: toxicity; conditions: salmonella enterica subsp. enterica serovar typhimurium, s9, 49.5 h; time 2970 min
Cytochrome P450 2C8 = molecular target: T1, Cytochrome P450 2C8 (Homo sapiens, UniProt P10632); experiment: Inhibition of human CYP2C8 preincubated for 5 mins followed by NADPH addition measured after 5 to 30 mins by LC-MS analysis; format: ADME
T1 sequence (P10632 whole entry): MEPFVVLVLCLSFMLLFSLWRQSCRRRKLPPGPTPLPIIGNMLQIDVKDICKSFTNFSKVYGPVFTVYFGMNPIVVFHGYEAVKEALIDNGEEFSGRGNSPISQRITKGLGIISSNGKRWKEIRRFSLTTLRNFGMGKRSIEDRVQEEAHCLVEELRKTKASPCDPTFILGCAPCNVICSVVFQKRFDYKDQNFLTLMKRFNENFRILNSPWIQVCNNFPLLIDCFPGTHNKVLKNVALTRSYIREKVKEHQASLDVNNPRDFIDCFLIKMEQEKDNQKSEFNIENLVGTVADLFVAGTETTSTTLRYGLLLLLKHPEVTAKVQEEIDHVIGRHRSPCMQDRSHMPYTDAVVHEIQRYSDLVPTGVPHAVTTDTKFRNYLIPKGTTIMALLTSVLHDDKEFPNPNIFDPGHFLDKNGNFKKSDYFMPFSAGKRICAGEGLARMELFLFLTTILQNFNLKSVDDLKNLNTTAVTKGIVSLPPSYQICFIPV

Cytochrome P450 2C19 = Cytochrome P450 2C19 (Homo sapiens, UniProt P33261); experiment: Inhibition of human CYP2C19 preincubated for 5 mins followed by NADPH addition measured after 5 to 30 mins by LC-MS analysis; format: ADME
Sequence of Cytochrome P450 2C19 (P33261 whole entry): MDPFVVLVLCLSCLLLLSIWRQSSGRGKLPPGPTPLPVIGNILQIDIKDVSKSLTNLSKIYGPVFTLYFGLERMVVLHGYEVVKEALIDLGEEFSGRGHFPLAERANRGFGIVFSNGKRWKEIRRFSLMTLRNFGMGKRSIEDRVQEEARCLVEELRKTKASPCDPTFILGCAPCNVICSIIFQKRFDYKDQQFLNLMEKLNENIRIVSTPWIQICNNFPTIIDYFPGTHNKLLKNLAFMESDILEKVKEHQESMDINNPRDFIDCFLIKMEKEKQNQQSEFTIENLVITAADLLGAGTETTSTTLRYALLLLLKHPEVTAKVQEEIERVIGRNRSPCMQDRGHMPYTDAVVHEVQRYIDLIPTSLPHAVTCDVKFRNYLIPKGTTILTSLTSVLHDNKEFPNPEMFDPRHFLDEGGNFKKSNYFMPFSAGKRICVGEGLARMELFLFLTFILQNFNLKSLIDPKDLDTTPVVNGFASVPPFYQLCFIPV

Cytochrome P450 2D6 = Cytochrome P450 2D6 (Homo sapiens, UniProt P10635); experiment: Inhibition of human CYP2D6 preincubated for 5 mins followed by NADPH addition measured after 5 to 30 mins by LC-MS analysis; format: ADME
Sequence of Cytochrome P450 2D6 (P10635 whole entry): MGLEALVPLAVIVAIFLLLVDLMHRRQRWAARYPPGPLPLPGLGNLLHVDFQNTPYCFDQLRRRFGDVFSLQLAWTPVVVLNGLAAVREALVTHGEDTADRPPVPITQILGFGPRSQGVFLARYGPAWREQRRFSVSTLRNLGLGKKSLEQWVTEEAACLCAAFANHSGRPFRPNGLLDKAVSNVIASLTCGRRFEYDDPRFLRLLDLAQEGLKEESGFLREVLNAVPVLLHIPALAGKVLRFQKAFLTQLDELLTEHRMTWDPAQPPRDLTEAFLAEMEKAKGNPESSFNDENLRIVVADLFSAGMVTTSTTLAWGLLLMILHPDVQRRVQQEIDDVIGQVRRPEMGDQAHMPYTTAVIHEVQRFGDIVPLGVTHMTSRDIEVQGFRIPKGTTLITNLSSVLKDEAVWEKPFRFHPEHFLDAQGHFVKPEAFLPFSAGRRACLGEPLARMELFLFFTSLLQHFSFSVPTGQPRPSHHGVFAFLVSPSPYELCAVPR

Cytochrome P450 3A4 = Cytochrome P450 3A4 (Homo sapiens, UniProt P08684); experiment: Inhibition of human CYP3A4 preincubated for 5 mins followed by NADPH addition measured after 5 to 30 mins by LC-MS analysis; format: ADME; conditions: time 10-35 min
Sequence of Cytochrome P450 3A4 (P08684 whole entry): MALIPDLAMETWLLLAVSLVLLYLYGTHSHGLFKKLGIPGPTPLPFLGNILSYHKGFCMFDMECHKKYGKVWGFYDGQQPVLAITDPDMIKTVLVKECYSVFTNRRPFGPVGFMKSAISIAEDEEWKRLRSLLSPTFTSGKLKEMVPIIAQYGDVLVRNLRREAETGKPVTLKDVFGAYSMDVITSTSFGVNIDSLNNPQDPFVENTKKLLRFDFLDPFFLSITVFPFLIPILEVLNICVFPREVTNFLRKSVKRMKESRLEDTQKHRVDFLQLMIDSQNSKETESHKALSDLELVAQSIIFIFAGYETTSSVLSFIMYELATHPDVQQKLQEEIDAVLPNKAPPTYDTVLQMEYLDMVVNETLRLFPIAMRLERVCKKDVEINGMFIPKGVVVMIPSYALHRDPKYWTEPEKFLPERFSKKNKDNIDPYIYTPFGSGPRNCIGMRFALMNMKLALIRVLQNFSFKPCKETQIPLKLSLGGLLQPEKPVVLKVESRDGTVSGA

Cytochrome P450 3A5 = Cytochrome P450 3A5 (Homo sapiens, UniProt P20815); experiment: Inhibition of human CYP3A5 preincubated for 5 mins followed by NADPH addition measured after 5 to 30 mins by LC-MS analysis; format: ADME; conditions: time 10-35 min
Sequence of Cytochrome P450 3A5 (P20815 whole entry): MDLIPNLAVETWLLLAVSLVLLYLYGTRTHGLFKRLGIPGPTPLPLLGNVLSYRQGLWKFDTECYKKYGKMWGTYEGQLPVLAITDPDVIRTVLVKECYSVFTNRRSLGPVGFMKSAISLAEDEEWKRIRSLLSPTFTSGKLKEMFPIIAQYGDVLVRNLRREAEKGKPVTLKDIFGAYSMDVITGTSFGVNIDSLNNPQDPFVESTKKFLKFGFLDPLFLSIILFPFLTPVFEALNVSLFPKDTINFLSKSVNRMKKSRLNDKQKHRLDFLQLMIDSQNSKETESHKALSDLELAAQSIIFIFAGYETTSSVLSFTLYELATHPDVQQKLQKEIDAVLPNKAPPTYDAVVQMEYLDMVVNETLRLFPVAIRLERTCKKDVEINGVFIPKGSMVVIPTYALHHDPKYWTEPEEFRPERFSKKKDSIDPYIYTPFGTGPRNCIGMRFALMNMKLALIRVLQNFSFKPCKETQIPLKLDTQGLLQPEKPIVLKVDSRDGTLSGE

dengue virus type 2 = experiment: In vivo antiviral activity against DENV-2/RL infected in AG129 mouse assessed as increase in efficacy administered as po bid for 3 days; format: functional, organism-based; conditions: dose 0.2-60 mg/kg/day, time 3.0 day

- pEC50 (dengue virus type 4): 7.96
- microsomal CLint [1]: < 8 µL/min/mg
- hepatocyte CLint [2]: < 1.9 µL/min/1e6 cells
- hepatocyte CLint [3]: < 1.9 µL/min/1e6 cells
- clearance [4]: 4.9 mL/min/kg
- Cmax [5]: 629 ng/mL
- AUC [6]: 15400 ng·h/mL
- hepatocyte CLint [7]: < 1.9 µL/min/1e6 cells
- clearance [8]: 4.97 mL/min/kg
- half-life [9]: 6.2 h
- AUC at 24 h [10]: 35600 ng·h/mL
- LBF [11]: 4%
- LBF [12]: 21%
- Cmax [13]: 362 ng/mL
- bioavailability [14]: 51%
- LBF [15]: 5%
- Vd [16]: 1.64 L/kg
- AUC at 24 h [17]: 8970 ng·h/mL
- logD [18]: > 4.1
- Papp A→B at 2 h, 1 µM (mouse P-gp [19]): 1 ×10⁻⁶ cm/s
- efflux ratio at 2 h, 1 µM (mouse P-gp [20]): ~4
- pIC50 (Cytochrome P450 2C8): 5.13
- pIC50 (Cytochrome P450 2C19): 4.99
- pIC50 (Cytochrome P450 2D6): < 4.52
- inhibition (INH) (Cytochrome P450 3A4): Not Active
- inhibition (INH) (Cytochrome P450 3A5): Not Active
SMILES: COc1cc(N[C@H](C(=O)c2c[nH]c3ccc(OC(F)(F)F)cc23)c2ccc(Cl)cc2OC)cc(S(C)(=O)=O)c1 [MOSNODENVIR]
- Activity [21]: Non-Toxic
- Activity [22]: Non-Toxic
- Activity [23]: Non-Toxic
- Activity [24]: Non-Toxic
- Activity [25]: Non-Toxic
- Activity [26]: Non-Toxic
- Activity (dengue virus type 2): Dose-Dependent Effect
